# In patent US4446319A, “Aminocyclitols and their production” (Takeda Chemical Industries, Ltd., priority 1981, dated 1984):
# Columns and labels:
# α-glucoside hydrolase = conditions: reported in Journal of Antibiotics 33, 1575 to 1576 (1980); cited from earlier work
# [1] = target: maltase (porcine, intestinal mucosa); assay: maltase inhibitory activity, maltose as substrate; assay type: biochemical; conditions: substrate 0.05 M maltose, pH 6.8, 37° C., read-out: IC50 (concentration of 50% inhibition)
# Procedure: (§1) The inhibitory activities of valiolamine against α-glucosidase (yeast, type I, produced by Sigma Chemical Co., U.S.A.) as well as maltase and saccharase prepared from porcine intestinal mucosa (prepared in accordance with the procedure as described by B. Borgstrom and A. Dahlqvist in Acta Chem. Scand.; 12, 1997-2006, (1958)), when maltose and sucrose are used as a substrate, are determined by adding to 0.25 ml of a solution of an enzyme prepared by diluting suitably with 0.02 M phosphate buffer (pH 6.8) 0.5 ml of a solution of valiolamine to be tested in the same buffer and 0.25 ml of 0.05 M maltose or 0.05 M sucrose as the substrate in the same buffer allowing the mixture to react at 37° C. for 10 minutes, then adding 3 ml of Glucose B-Test Reagent (a glucose oxidase reagent for measurement of glucose, produced by Wako Pure Chemical Co., Japan), further warming the mixture at 37° C. for 20 minutes and measuring the absorbance of the reaction solution at 505 nm. […]
# [2] = target: T1, glucoamylase (Rhizopus mold) (Rhizopus oryzae, UniProt P07683); assay: glucoamylase inhibitory activity, p-nitrophenyl α-D-glucopyranoside as substrate; assay type: biochemical; conditions: substrate 0.01 M p-nitrophenyl α-D-glucopyranoside, pH 6.8, 37° C., read-out: IC50 (concentration of 50% inhibition)
# T1 construct: purchased Sigma Chemical Co; host or cells: Rhizopus mold
# T1 sequence (P07683 26-604): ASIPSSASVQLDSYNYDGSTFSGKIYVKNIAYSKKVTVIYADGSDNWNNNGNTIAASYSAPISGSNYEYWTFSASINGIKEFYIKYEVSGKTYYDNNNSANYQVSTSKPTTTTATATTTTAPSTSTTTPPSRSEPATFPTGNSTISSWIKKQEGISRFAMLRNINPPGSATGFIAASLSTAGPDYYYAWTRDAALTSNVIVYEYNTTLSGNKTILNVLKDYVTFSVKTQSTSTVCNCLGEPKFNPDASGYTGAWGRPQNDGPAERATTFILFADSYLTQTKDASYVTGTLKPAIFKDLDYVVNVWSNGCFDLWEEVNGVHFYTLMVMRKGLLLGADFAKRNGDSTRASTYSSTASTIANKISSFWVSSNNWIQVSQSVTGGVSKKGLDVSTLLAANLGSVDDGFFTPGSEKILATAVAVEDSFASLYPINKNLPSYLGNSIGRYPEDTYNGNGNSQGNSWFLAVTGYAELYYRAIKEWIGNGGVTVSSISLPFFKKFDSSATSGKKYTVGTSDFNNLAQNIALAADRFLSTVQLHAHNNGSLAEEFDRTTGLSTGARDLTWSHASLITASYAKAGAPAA
# Procedure: (§2) The inhibitory activities against α-glucosidase (yeast, type I, produced by Sigman Chemical Co.) and glucoamylase (Rhizopus mold, produced by Sigma Chemical Co.) when p-nitrophenyl α-D-glucopyranoside is used as a substrate, are determined by adding to 0.25 ml of 0.02 M phosphate buffer (pH 6.8) containing 0.005 mg/ml of α-glucosidase 0.5 ml of a solution of valiolamine in the same buffer and 0.25 ml of a solution of 0.01 M p-nitrophenyl α-D-glucopyranoside in the same buffer, allowing the reaction to proceed at 37° C. for 15 minutes, then adding 3 ml of 0.1 M aqueous sodium carbonate solution to terminate the reaction, and measuring the absorbance of the reaction solution at 400 nm. The 50% inhibition concentration is calculated from the inhibition rates (%) which are determined with inhibitory substance samples of three to five different concentrations.
# toxicity (LD50) in rats = conditions: rat, in vivo
# [3] = target: T2, α-glucosidase (yeast, type I) (Saccharomyces cerevisiae, UniProt P53341); assay: glucosidase inhibitory activity, maltose as substrate; assay type: biochemical; conditions: substrate 0.05 M maltose, pH 6.8, 37° C., read-out: IC50 (concentration of 50% inhibition)
# T2 construct: purchased Sigma Chemical Co; host or cells: yeast
# Procedure: as §1
# [4] = target: T2, α-glucosidase (yeast, type I); assay: glucosidase inhibitory activity, p-nitrophenyl α-D-glucopyranoside as substrate; assay type: biochemical; conditions: substrate 0.01 M p-nitrophenyl α-D-glucopyranoside, pH 6.8, 37° C., read-out: IC50 (concentration of 50% inhibition)
# Procedure: as §2
# T2 sequence (P53341 whole entry): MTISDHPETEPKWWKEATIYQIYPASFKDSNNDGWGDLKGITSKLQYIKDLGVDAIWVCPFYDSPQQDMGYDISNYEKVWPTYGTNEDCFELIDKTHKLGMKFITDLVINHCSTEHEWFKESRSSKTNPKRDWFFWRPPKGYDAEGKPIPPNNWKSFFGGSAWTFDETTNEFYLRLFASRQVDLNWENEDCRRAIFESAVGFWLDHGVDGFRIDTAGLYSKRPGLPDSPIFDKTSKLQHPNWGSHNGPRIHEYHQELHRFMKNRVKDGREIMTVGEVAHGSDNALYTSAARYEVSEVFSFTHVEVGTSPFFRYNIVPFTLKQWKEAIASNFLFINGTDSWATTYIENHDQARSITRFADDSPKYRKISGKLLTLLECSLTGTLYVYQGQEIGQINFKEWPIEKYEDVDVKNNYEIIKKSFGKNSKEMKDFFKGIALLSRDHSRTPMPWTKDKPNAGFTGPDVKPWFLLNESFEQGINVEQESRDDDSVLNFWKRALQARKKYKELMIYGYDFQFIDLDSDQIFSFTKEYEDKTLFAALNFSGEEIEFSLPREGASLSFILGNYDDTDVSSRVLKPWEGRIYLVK
SMILES,action on α-glucoside hydrolase (α-glucoside hydrolase),IC50 [1],IC50 [2],LD50 (toxicity (LD50) in rats),IC50 [3],IC50 [4]
N[C@H]1C=C(CO)[C@@H](O)[C@H](O)[C@H]1O [valienamine],possesses an action of suppressing the function of α-glucoside hydrolase,,,,,
"N[C@H]1C[C@](O)(CO)[C@@H](O)[C@H](O)[C@H]1O [valiolamine, 1L(1S)-(1(OH),2,4,5/1,3)-5-amino-1-hydroxymethyl-1,2,3,4-cyclohexanetetrol]",,2.2 µM,600 µM,≥ 500 mg/kg,190 µM,1100 µM
